According to US6342534B1, “Analogs of biologically active, naturally occurring polyamines, pharmaceutical compositions and methods of treatment” (University of Florida Research Foundation, Inc., priority 1986, dated 2002):
Like-named read-outs stand apart in the source and are kept apart here.

How the values were obtained:
L1210 cells = assay: Growth inhibition of L1210 cells (IC50 at 48/96 h); type: cell-based; conditions: Mus musculus
[1] = system: a variety of tumors in cell culture; assay: Anti-neoplastic activity against tumors in cell culture; type: cell-based
Description: (§1) If there is any significance to the role of charge interaction in the biological properties of the polyamine analogs, alterations in the polyamine methylene backbone should have significant impact on the compound's biological properties. […] The trifluoroethyl group substantially reduces the pKa of the terminal nitrogens and they are no longer protonated [J. Org. Chem., Vol. 24, “Fluorine containing nitrogen compounds—I Trifluoroethylamines,” Bissel et al, pages 1256-1259 (1959)]. Even though the dimensions of bis-β,β,β-trifluoroethylspermine and diethylspermine are essentially the same, what was once a tetracationic spermine analog is now only a dication. […] The same phenomenon is observed when one acetylates a terminal nitrogen of spermine. The amide nitrogen is not protonated at physiological pH, and the compound has no anti-neoplastic properties and behaves very much like spermidine in displacing ethidium iodide from DNA.

calf thymus DNA = assay: Displacement of ethidium iodide from calf thymus DNA; type: binding; conditions: compared with natural polyamines
Description: as §1

[2] = cited from earlier work
[3] = Table 1, 48 h, read-out: IC50 (μM) of L1210 cells at 48 h
[4] = Table 1, 96 h, read-out: IC50 (μM) of L1210 cells at 96 h

SMILES	IC50 (L1210 cells; [3]) [µM]	IC50 (L1210 cells; [4]) [µM]	anti-neoplastic activity [1]	ability to displace ethidium iodide from calf thymus DNA (calf thymus DNA)	SAT up-regulation (factor) [2]
C(CCNCC1CCNCC1)CNCC1CCNCC1	2	0.2			
c1cc(CNCCCCNCc2ccncc2)ccn1	> 100	90			
C(CCNCCC1CCNCC1)CNCCC1CCNCC1	> 100	0.25			
c1cc(CCNCCNCCc2ccncc2)ccn1	> 100	> 100			
FC(F)(F)CNCCCNCCCCNCCCNCC(F)(F)F [BTFESPM, bis-β,β,β-trifluoroethylspermine]			essentially disappears	behave more like putrescine than spermine	
CCNCCCCNCCCCNCCCCNCC [DEHSPM, diethyl-homospermine]					little impact on SAT levels
CCNCCCNCCCNCCCNCC [DENSPM, diethylnorspermine]					1,200 fold
CCNCCCNCCCCNCCCNCC [DESPM, N^1,N^12-diethylspermine]			quite active		200 fold
